# ChEMBL document CHEMBL1126580, “Enantiospecific syntheses of alpha-(fluoromethyl)tryptophan analogues: interactions with tryptophan hydroxylase and aromatic L-amino acid decarboxylase” (J Med Chem, 1993)
# Molecular target: T1, Aromatic-L-amino-acid decarboxylase (Mus musculus, UniProt O88533)
# T1 sequence (O88533 whole entry): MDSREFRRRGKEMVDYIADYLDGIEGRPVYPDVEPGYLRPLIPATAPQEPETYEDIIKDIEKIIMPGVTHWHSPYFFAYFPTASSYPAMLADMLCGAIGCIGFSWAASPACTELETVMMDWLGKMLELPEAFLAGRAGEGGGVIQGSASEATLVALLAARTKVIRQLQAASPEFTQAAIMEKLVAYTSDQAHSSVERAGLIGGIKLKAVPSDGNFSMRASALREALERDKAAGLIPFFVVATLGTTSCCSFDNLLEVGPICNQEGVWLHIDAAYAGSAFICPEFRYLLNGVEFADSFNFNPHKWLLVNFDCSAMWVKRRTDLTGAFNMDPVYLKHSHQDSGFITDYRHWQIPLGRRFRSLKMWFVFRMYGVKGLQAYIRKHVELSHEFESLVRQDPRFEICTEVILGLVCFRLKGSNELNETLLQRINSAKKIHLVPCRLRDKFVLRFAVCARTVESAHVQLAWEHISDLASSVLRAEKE
# Experiment: Dissociation constant (KI) was evaluated as inhibitor of murine liver aromatic L-amino acid decarboxylase (AADC)
smiles,measurement,value
N[C@@](CF)(Cc1c[nH]c2ccc(O)cc12)C(=O)O,Ki,24.3 µM
